Data from PMC12881674, “Activation of TRPV3 channels in bladder cancer cells stimulates ATP release” (Molecular Pharmacology, 2025).

Target: T1, TRPV3 in CAL-29 cells (Homo sapiens, UniProt Q8NET8)
T1 construct: host or cells: CAL-29
T1 sequence (Q8NET8 1-790): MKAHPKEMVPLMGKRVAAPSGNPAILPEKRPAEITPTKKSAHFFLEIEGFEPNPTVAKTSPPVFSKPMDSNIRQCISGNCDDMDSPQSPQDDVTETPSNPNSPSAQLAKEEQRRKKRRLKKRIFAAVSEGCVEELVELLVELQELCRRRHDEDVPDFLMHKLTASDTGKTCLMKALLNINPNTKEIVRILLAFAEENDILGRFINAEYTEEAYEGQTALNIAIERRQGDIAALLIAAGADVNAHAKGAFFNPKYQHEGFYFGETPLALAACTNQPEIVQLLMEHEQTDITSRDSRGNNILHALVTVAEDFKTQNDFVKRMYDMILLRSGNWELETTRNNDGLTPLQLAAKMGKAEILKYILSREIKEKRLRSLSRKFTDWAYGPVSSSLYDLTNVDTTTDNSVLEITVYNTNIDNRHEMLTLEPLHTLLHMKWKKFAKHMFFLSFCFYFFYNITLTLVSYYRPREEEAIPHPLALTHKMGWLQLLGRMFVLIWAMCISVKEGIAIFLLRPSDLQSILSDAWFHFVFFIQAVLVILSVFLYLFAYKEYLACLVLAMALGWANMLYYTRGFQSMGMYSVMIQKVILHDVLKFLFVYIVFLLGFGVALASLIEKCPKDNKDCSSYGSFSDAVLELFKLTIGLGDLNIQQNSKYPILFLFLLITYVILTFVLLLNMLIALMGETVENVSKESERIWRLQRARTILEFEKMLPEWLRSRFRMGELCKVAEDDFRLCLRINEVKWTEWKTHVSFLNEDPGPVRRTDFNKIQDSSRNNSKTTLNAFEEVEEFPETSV
Test: fura-2 Ca2+ assay in CAL-29 bladder cancer cells
Assay type: cell-based
Settings: 50 μM AV3-1
Protocol: All fluorometric Ca^2+ assays were performed in HBS buffer at room temperature. The compounds of the Enamine Diversity Set were diluted in a buffer composed of 150 mM NaCl and 20 mM HEPES and added to the cells at a final concentration of 25 μM (0.5% DMSO). For the primary compound screening and the generation of concentration-response analyses, a robotic liquid handling station (Freedom Evo 150; Tecan) with a built-in custom-made fluorescence plate imager was used. HEKTRPV3 and bladder cancer cell lines were harvested and loaded with 4 μM fluo-4/AM (Invitrogen; Fisher Scientific) in cell culture medium for 30 minutes at 37 °C. […] Fluorescence was excited using a 470-nm light-emitting diode, and emitted light was imaged through a 515-nm–long pass filter with a cooled Zyla 5.5 camera (Andor). Fluorescence was recorded and processed under the control of the μ-Manager 2.0 gamma software (https://micro-manager.org.[28]). After recording baseline fluorescence, compounds were dispensed into the wells via the liquid handling device. […] For further analysis, fluorescence signals were calculated for each well, corrected for background intensities and normalized to the initial signals. […] Fluorescence signals were excited with a fiber-coupled monochromator device (Polychrome V; Till Photonics) at 340, 358, and 380 nm and calibrated as described before.[29] […]

[Ca2+]i response in CAL-29 cells: robust increases in [Ca^2+]i
Structure (SMILES): COC(=O)C12CN(Cc3ccccc3)CC1(C(=O)OC)CN(Cc1ccccc1)C2 (stereo not shown) [AV3-1]
